Results as given in patent US20150010545A1 (KADMON CORPORATION, LLC, priority 2011, published 2015).

Columns and labels:
Src [1] = target: T1, Src (Homo sapiens, UniProt P12931); assay: in vitro SRC kinase assay; type: biochemical; details: in vitro kinase assays; read-out: IC50 of inhibition of SRC kinase activity
Protocol: (§1) Inhibition of SRC kinase activity by EXEL-7647 was measured using in vitro kinase assays. […] In addition, the effect of EXEL-7647 on the phosphorylation of the […] protein FAK (focal adhesion kinase) was measured in cell culture (FIG. 1). Specifically, DLD1-PTK2 cells were treated with EXEL-7647 at concentrations of 1.6, 4.7, 14, 41, 123, 370, 1111, 3333 or 10,000 nM for one hour in serum-free DMEM and harvested. The phosphorylation status of the tyrosine at amino acid position 861 of the FAK protein (“FAK-PY861”) in the treated cells was then determined by standard Western blotting using phosphorylation-specific antibodies, as indicated in FIG. 1. The Western blot was quantified using a Typhoon scanned image and ImageQuant software and the IC50 value for EXEL-7647-mediated inhibition of FAK-phosphorylation calculated. […] The kinase inhibitor staurosporine (EXEL 00878128) was used as a positive control. […] The identifier EXEL-02377647:9 in FIG. 1 refers to compound EXEL-7647.

[2] = tested on: FAK (focal adhesion kinase); assay: FAK (PY861) phosphorylation in DLD1-PTK2 cells, Western blot; type: cell-based; details: one hour, serum-free DMEM, read-out: IC50 of inhibition of FAK phosphorylation at tyrosine 861
Protocol: as §1

BT474 tumor xenografts = assay: BT474 tumor xenograft growth in athymic nude mice; type: in vivo, human; details: oral, three consecutive days
Protocol: The human breast cancer cell line BT474 expresses high levels of ErbB2 (Her2), a significant fraction of which is constitutively phosphorylated even in the absence of an exogenous ligand. The phosphorylation of ErbB2 is a measure of its activity. Athymic nude mice bearing tumor xenografts derived from the human breast cancer cell line BT474 were treated orally on three consecutive days with 3, 10, 30 or 100 mg/kg of EXEL-7647. The tumors were harvested 1 hr after the final dose was administered and their weights were measured.

ErbB2 (Her2) = ErbB2 (Her2) (Homo sapiens, UniProt P04626); assay: ErbB2 phosphorylation in BT474 tumor xenografts in mice; type: in vivo
EGFR = EGFR (Homo sapiens, UniProt P00533); assay: EGF-induced EGFR phosphorylation in A431 tumor xenografts in mice; type: in vivo
KDR = target: T2, KDR (Mus musculus, UniProt P35918); assay: VEGF-induced KDR phosphorylation in mouse lungs; type: in vivo, mice; details: mouse lung lysate pools; read-out: IC50 of decrease of VEGF-induced KDR receptor phosphorylation (plasma concentration)
T2 construct: from tissue; host or cells: mouse lung

EphB4 = target: T3, EphB4 (Homo sapiens, UniProt P54760); assay: EphB4 phosphorylation in HCT116/EphB4 xenografts in mice; type: in vivo
T3 construct: expressed in transfected cells; host or cells: HCT116 (human colon carcinoma), grown as xenografts in mice
T3 sequence (P54760 16-987): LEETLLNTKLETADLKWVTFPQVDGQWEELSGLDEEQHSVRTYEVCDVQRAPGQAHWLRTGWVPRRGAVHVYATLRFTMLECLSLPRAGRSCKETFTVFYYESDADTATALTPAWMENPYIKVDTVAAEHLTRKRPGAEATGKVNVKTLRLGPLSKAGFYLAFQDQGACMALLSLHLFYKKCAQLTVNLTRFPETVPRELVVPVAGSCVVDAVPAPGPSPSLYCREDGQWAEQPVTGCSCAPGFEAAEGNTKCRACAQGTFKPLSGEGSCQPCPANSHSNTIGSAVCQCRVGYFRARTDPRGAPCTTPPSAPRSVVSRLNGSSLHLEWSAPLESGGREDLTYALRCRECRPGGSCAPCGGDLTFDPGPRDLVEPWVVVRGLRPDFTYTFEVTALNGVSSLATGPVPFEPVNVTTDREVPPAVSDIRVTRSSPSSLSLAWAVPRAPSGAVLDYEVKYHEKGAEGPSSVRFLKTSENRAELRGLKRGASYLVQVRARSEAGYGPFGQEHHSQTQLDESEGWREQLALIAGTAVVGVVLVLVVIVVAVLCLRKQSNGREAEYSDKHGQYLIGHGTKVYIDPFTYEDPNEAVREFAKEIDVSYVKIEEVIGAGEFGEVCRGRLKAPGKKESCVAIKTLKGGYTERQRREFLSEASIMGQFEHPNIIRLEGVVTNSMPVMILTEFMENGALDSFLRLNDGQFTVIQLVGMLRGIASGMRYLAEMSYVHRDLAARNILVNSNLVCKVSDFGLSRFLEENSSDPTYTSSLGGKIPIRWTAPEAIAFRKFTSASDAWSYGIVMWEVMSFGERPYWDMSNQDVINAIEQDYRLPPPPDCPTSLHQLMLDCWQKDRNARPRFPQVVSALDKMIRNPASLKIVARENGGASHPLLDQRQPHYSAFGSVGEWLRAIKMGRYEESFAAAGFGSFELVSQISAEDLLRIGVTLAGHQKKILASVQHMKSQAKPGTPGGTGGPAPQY
From the text: The ability of EXEL-7647 to inhibit the activity of the EphB4 receptor (determined by measuring the receptor's level of phosphorylation) was validated as follows. A cell line expressing high levels of EphB4 was derived by transfecting the human colon carcinoma line HCT116 with a drug selectable marker and an expression vector encoding EphB4. The resulting EphB4 expressing cells (HCT116/EphB4) grow as xenografts in immunocompromised mice. […] Attempts to further stimulate EphB4-phosphorylation by intravenous or intratumoral injection of […] were not successful (data not shown).
Mice bearing HCT116/EphB4 xenografts were dosed orally on three consecutive days with 3, 10, 30 or 100 mg/kg EXEL-7647. Tumors were harvested 1 hr after the final dose and assayed individually or in treatment groups for total and phospho-EphB4 levels by standard Western blotting (FIG. 5, left panel). Tumors from mice treated with vehicle alone served as the negative control. The detection of actin served as a control for protein integrity and concentration.
The plasma concentrations of EXEL-7647 in the mice carrying the analyzed tumors (see above) were determined as well and correlated with the corresponding reductions of phospho-EPHB4 levels (FIG. 5, right panel).

[3] = tested on: human microvascular endothelial cells (HMVECs); assay: VEGF-induced endothelial tubule formation assay; type: cell-based; details: HMVEC; HMVECs on human diploid fibroblasts, CD31 staining; read-out: IC50 of inhibition of VEGF-induced tubule formation
From the text: When plated on a confluent layer of normal human diploid fibroblasts, human microvascular endothelial cells (HMVECs) form extensive networks of tubules in response to VEGF over a 7-10 day period.

[4] = tested on: MDA-MB-231 tumor xenografts; assay: MDA-MB-231 xenografts, 14-day dosing: tumor growth, necrosis, CD31, Ki67; type: in vivo, human; details: fourteen days; for CD31 Analysis MVC (mean vessel count) / Ki67 Expression % of Cells / Necrosis % increase: mean (SD)
Protocol: Anti-angiogenic effects of EXEL-7647 were also studied in vivo. Tumor xenografts derived from the human breast cancer cell line MDA-MB-231 were established in athymic female mice and allowed to reach a total weight of 100 mg. The mice were then treated orally on fourteen consecutive days with doses of 10, 30 or 100 mg/kg of EXEL-7647. The tumors were harvested and their weights were measured after the last dosage had been administered. Tumors derived from mice treated with vehicle alone served as negative controls. […] A statistically significant increase in tumor necrosis was not observed at the lower dose of 10 mg/kg in this model.

[5] = tested on: MDA-MB-231 tumor xenografts; assay: MDA-MB-231 xenograft growth, up to 28-day dosing; type: in vivo, human
Protocol: The ability of EXEL-7647 to inhibit the growth of tumors derived from the human breast cancer cell line MDA-MB-231 was validated as follows. Tumor xenografts derived from MDA-MB-231 cells were established in athymic female mice and allowed to reach a total weight of 100 mg. The mice were then treated orally on up to twenty-eight consecutive days with doses of 10, 30 or 100 mg/kg of EXEL-7647. The tumors were harvested on specific days after treatment with XL647 had begun and their weights were measured, as indicated in FIG. 7. Tumors derived from mice treated with vehicle alone served as negative controls.

JIMT-1 cells = assay: JIMT-1 cell proliferation assay (CellTiter 96 AQueous); type: cell-based; details: Homo sapiens, 72 hours
HCC1954 cells = assay: HCC1954 cell proliferation assay (CellTiter 96 AQueous); type: cell-based; details: Homo sapiens, 72 hours
HMVECs = details: human
[6] = cytotoxicity on HMVECs, Alamar blue staining; details: human, human microvascular endothelial cells (HMVECs)
[7] = tested on: murine MS1 endothelial cells; assay: scratch assay, VEGF-stimulated endothelial cell migration
Src [8] = target: T1, Src; details: both cell lines (JIMT-1, HCC1954), 18 hours of treatment

Sequence of ErbB2 (Her2) (P04626 23-1255): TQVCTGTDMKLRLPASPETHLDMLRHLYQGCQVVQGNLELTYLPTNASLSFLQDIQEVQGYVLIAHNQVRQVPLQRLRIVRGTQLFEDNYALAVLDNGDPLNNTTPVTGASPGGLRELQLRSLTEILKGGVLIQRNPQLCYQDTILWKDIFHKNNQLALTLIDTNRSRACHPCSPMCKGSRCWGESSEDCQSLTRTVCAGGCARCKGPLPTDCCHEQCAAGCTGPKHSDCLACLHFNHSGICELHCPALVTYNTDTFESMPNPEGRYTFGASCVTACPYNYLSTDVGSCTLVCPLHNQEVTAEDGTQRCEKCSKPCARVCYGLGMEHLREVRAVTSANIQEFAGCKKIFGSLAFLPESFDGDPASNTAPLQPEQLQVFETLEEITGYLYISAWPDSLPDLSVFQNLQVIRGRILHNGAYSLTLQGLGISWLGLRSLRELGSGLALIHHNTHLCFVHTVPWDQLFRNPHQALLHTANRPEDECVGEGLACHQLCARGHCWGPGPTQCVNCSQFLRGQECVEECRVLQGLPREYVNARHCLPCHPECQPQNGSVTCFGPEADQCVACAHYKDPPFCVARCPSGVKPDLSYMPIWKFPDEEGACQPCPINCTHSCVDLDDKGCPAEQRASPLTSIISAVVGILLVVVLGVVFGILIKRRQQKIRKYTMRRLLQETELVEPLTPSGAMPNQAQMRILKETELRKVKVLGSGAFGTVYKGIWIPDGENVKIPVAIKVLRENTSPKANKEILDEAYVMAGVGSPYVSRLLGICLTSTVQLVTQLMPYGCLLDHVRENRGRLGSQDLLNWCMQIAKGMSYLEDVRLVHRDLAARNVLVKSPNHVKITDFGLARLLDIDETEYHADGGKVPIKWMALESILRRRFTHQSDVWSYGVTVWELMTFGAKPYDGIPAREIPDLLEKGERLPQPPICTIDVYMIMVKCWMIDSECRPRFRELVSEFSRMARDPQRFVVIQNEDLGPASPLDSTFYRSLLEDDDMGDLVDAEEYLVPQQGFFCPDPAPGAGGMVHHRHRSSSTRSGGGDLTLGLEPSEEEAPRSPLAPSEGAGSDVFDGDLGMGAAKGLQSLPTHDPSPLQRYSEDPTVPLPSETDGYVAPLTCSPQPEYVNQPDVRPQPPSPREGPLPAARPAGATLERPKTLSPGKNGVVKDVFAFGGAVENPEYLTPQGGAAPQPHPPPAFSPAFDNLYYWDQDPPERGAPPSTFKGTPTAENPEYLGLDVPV
T1 sequence (P12931 whole entry): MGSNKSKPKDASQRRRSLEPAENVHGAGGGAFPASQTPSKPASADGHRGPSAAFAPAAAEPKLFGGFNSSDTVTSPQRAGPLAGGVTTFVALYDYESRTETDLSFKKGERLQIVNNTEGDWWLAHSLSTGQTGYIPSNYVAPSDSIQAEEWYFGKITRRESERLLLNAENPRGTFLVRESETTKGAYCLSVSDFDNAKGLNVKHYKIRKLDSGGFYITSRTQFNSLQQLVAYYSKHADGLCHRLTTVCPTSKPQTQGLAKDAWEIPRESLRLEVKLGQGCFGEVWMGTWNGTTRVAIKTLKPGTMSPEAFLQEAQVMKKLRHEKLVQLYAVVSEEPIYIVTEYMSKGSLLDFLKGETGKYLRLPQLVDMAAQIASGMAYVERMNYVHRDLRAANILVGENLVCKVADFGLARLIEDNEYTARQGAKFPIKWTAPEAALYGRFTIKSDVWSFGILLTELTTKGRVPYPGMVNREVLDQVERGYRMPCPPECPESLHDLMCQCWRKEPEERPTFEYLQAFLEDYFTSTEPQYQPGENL
Sequence of EGFR (P00533 25-1210): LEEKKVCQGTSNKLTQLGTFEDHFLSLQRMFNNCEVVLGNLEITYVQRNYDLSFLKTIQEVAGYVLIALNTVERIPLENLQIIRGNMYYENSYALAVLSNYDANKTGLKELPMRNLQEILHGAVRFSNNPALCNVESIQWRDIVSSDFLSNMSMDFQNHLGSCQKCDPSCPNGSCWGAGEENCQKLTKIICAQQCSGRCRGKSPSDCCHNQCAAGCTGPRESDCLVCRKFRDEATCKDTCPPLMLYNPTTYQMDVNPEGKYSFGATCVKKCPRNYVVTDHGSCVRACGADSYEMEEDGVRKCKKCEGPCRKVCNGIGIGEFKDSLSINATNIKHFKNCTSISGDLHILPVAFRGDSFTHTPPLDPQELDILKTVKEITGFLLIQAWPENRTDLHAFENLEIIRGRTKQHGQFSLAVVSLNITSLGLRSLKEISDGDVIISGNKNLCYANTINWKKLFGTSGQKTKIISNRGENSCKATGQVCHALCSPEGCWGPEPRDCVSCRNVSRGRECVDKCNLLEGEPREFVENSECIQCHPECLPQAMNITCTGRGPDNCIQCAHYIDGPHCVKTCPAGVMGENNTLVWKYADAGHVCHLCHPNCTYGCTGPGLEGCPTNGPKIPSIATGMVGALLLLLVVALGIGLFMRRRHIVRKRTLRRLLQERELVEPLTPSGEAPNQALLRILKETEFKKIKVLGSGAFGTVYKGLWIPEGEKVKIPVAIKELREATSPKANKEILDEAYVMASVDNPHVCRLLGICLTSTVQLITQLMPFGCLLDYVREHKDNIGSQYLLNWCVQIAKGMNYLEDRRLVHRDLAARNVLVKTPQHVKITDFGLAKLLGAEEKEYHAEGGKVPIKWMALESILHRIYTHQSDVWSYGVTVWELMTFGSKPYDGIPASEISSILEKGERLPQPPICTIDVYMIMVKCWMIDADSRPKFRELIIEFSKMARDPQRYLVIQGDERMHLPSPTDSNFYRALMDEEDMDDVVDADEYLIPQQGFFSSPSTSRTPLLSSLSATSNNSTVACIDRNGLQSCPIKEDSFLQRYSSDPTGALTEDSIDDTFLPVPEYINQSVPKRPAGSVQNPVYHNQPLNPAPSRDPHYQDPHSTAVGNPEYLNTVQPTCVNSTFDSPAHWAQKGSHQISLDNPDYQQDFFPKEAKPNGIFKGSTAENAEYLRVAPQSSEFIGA
T2 sequence (P35918 20-1345): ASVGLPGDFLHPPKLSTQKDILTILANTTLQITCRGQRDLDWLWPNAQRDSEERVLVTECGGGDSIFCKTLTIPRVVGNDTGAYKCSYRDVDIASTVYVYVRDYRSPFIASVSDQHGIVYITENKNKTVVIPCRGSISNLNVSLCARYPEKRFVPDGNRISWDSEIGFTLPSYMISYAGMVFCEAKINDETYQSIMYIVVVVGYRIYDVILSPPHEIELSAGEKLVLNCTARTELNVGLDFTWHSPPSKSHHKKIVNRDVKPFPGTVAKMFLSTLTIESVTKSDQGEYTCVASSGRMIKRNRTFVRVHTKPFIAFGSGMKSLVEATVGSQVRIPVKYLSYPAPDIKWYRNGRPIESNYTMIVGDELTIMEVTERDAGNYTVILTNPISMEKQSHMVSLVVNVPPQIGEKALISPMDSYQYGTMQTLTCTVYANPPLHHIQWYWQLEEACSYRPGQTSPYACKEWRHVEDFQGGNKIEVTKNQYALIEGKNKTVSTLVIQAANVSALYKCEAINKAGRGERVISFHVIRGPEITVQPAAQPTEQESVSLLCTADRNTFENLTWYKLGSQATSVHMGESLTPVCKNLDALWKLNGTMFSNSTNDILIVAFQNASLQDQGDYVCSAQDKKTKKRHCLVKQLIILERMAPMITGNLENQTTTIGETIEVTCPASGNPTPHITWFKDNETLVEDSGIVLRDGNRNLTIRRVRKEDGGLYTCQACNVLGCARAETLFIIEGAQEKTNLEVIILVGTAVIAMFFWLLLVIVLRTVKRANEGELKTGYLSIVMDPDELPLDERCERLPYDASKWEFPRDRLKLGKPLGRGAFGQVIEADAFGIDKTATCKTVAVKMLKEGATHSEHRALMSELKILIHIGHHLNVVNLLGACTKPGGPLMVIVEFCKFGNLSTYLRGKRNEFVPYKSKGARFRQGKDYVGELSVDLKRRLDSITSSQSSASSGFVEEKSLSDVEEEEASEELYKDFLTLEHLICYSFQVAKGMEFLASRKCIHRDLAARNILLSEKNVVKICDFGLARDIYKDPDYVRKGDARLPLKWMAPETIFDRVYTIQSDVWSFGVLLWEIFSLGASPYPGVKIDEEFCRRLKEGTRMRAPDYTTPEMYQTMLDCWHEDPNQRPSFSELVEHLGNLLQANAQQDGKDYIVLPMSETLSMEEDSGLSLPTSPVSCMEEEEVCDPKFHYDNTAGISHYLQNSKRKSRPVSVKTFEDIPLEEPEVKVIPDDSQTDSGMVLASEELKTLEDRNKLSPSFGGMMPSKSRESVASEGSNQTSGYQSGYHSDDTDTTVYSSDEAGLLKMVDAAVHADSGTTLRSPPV

COc1cc2c(Nc3ccc(Cl)c(Cl)c3F)ncnc2cc1OCC1C[C@@H]2CN(C)C[C@@H]2C1 (stereo partly drawn) [EXEL-7647, N-(3,4-dichloro-2-fluorophenyl)-7-({[(3aR,6aS)-2-methyloctahydrocyclopenta[c]pyrrol-5-yl]methyl}oxy)-6-(methyloxy)quinazolin-4-amine]
IC50 (Src [1]): 10.3 nM | IC50 [2]: ~1000 nM | calculated ED50 of inhibition of tumor growth (BT474 tumor xenografts): 30 mg EXEL-7647 per kg of body weight | reduction of phospho-ErbB2 (ErbB2 (Her2); 100 mg/kg oral on three consecutive days, vs vehicle): approximately 70% | IC50 (ErbB2 (Her2); BT474 xenografts, correlated with plasma concentration, read-out: IC50 of inhibition of phospho-ErbB2 accumulation in tumors (plasma concentration)): 3580 nM | reduction of phospho-ErbB2 (ErbB2 (Her2); plasma concentration of about 5.37 μM): approximately 69% | reduction of EGF-induced EGFR-phosphorylation (EGFR; 100 mg/kg oral, vs positive control): about 90% | IC50 (EGFR; read-out: IC50 plasma concentration for inhibition of EGFR phosphorylation in tumors): 720 nM | IC50 (KDR): ~1230 nM | reduction of phospho-EphB4 (EphB4; 100 mg/kg oral on three consecutive days): approximately 70% | IC50 (EphB4; HCT116/EphB4 xenografts, read-out: plasma concentration predicted for 50% inhibition of EphB4-phosphorylation): ~2400 nM | reduction of EphB4 phosphorylation in tumors (EphB4; plasma concentration of about 3 μM): approximately 70% | IC50 [3]: ~220 nM | CD31 Analysis % Reduction ([4]; 10 mg/kg oral): 30.23% | Ki67 Expression % Reduction ([4]; 10 mg/kg oral): 39.6% | Necrosis fold increase ([4]; 10 mg/kg oral): 1.6 fold | CD31 Analysis MVC (mean vessel count) ([4]; 10 mg/kg oral): 12.93 (2.3) | Ki67 Expression % of Cells ([4]; 10 mg/kg oral): 29.8 (13.3) % | Necrosis % increase ([4]; 10 mg/kg oral): 25.0 (14.2) % | CD31 Analysis % Reduction ([4]; 30 mg/kg oral): 55.83% | Ki67 Expression % Reduction ([4]; 30 mg/kg oral): 42.6% | Necrosis fold increase ([4]; 30 mg/kg oral): 2.0 fold | CD31 Analysis MVC (mean vessel count) ([4]; 30 mg/kg oral): 8.18 (1.4) | Ki67 Expression % of Cells ([4]; 30 mg/kg oral): 28.3 (10.4) % | Necrosis % increase ([4]; 30 mg/kg oral): 30.6 (11.3) % | CD31 Analysis % Reduction ([4]; 100 mg/kg oral): 91.23% | Ki67 Expression % Reduction ([4]; 100 mg/kg oral): 49.6% | Necrosis fold increase ([4]; 100 mg/kg oral): 4.5 fold | CD31 Analysis MVC (mean vessel count) ([4]; 100 mg/kg oral): 1.625 (1) | Ki67 Expression % of Cells ([4]; 100 mg/kg oral): 24.87 (4.9) % | Necrosis % increase ([4]; 100 mg/kg oral): 71.1 (8.1) % | tumor weight at end of study ([4]; 100 mg/kg oral, tumor weight at start 100.6±8.7 mg): 112 ± 16.2 mg | final tumor weight ([5]; 100 mg/kg oral, up to twenty-eight days, starting tumor weight 94±9 mg): 117 ± 33 mg | calculated ED50 of inhibition of tumor growth ([5]; MDA-MB-231 xenografts, oral, up to twenty-eight consecutive days): 22.9 mg of XL647 per kg body weight | inhibition at 0.2 µM (JIMT-1 cells; EXEL-7647 0.2 μM alone): 15.7% | inhibition at 0.5 µM (JIMT-1 cells; EXEL-7647 0.5 μM alone): 20.3% | inhibition at 1 µM (JIMT-1 cells; EXEL-7647 1.0 μM alone): 22.7% | inhibition at 2 µM (JIMT-1 cells; EXEL-7647 2.0 μM alone): 28.8% | inhibition at 5 µM (JIMT-1 cells; EXEL-7647 5.0 μM alone): 81.7% | inhibition at 0.2 µM (HCC1954 cells; EXEL-7647 0.2 μM alone): 22.5% | inhibition at 0.5 µM (HCC1954 cells; EXEL-7647 0.5 μM alone): 32.6% | inhibition at 1 µM (HCC1954 cells; EXEL-7647 1.0 μM alone): 38.1% | inhibition at 2 µM (HCC1954 cells; EXEL-7647 2.0 μM alone): 43.6% | inhibition at 5 µM (HCC1954 cells; EXEL-7647 5.0 μM alone): 80.4% | cytotoxicity IC50 relative to IC50 of tubule formation inhibition (HMVECs): approximately 5 fold | IC50 [6]: ~1300 nM | cytotoxicity in scratch assay ([7]; concentrations below 1.1 μM): No evidence for cytotoxicity | IC50 ([7]; read-out: IC50 of inhibition of cellular migration into the scratch, VEGF-stimulated MS1 cells, 24 hrs, six-point dose response): ~120 nM

CS(=O)(=O)CCNCc1ccc(-c2ccc3ncnc(Nc4ccc(OCc5cccc(F)c5)c(Cl)c4)c3c2)o1 [lapatinib]
able to inhibit SRC activity (SRC phosphorylation) (Src [8]): not
